# Source: publication PMC10216263, “Favorable Preclinical Pharmacological Profile of a Novel Antimalarial Pyrrolizidinylmethyl Derivative of 4-amino-7-chloroquinoline with Potent In Vitro and In Vivo Activities” (Biomolecules, 2023)
# How the values were obtained:
# Assay in all cases: Metabolic profiling in hepatocytes
# Type in all cases: in vitro ADME
# [1] = tested on: human hepatocytes; settings: human, 60 min, 10 µM
# Protocol: (§1) For metabolite profiling, MG3.2HCl (10 µM) was incubated with mouse, rat, dog, monkey, and human hepatocytes (300,000 cells/mL for the mouse and 1 × 10^6 cells/mL for the other species) in Leibovitz L-15 medium, at 37 °C. Incubations were performed in a 12-well plate under shaking. Aliquots of the incubation samples, together with a control in medium alone, were taken at t = 0 and 60 min; the metabolism was stopped by the addition of an equal volume of chilled ACN and the samples were centrifuged at 1100 rpm for 20 min. The supernatant was stored at −20 °C until analysis. The analyses were performed using an HPLC system (Agilent) online with a photodiode array (PDA) detector (Agilent) coupled to a Mass Spectrometer Q-TOF 2 (Waters), ESI positive, following the method reported in Table 1.
# (§2) The software utilized for searching the accurate masses of possible metabolites was Metabolynx, version 4.1 (Waters Corporation, Milford, MA, USA), with a mass window of 40 mDa. Samples were then re-run in MS/MS mode by selecting the masses of possible metabolites found. The collision energy used to obtain MS/MS data was 25 eV. The proposed identity of metabolites was based on their accurate mass (using LockSpray correction), with an accuracy of +/−5 mDa. MS/MS analyses were performed to verify that peaks were drug-related and to obtain structural information from the fragment ions formed. The structures of some metabolites are proposed. The approximate relative amounts of parent and metabolites were determined from the absolute areas taken from a selected ion chromatogram at the metabolite masses with a mass window of 0.04 Da.
# [2] = tested on: monkey hepatocytes; settings: 1 h, 10 µM
# Protocol: as §1, §2
# [3] = tested on: mouse hepatocytes; settings: 1 h, 10 µM
# Protocol: as §1, §2
# [4] = tested on: dog hepatocytes; settings: 1 h, 10 µM
# Protocol: as §1, §2
# [5] = tested on: rat hepatocytes; settings: rat, 60 min, 10 µM
# Protocol: as §1, §2
compound,measurement,setting,value
OC(Nc1ccnc2cc(Cl)ccc12)C12CCCN1CCC2 (centres unmarked) [M2],% of Total Drug Related Material,[1],1%
same,% of Total Drug Related Material,[2],1%
same,% of Total Drug Related Material,[3],3%
same,% of Total Drug Related Material,[4],27%
same,% of Total Drug Related Material,[5],6%
